Laboratory results as given in article PMC5099547 (British Journal of Clinical Pharmacology, 2016).
Marks after values point to notes of the source that are not given here.

How the values were obtained:
[1] = cited from earlier work
OAT3 = settings: cited from earlier work
[2] = Edoxaban-cyclosporine drug interaction study, plasma pharmacokinetics
OATP1B1 = settings: cited from earlier work
OAT1 = settings: cited from earlier work
OCT2 = settings: cited from earlier work
[3] = Safety and tolerability, all three studies; type: in vivo, human
[4] = cited from earlier work; remark: listed apart in the source
[5] = Edoxaban-erythromycin drug interaction study, plasma pharmacokinetics
P‐gp = settings: Caco‐2 cell monolayers; transport strongly hindered by P‐gp inhibitors; cited from earlier work
[6] = Edoxaban-ketoconazole drug interaction study, plasma pharmacokinetics
CYP3A4 = settings: cited from earlier work
[7] = edoxaban + cyclosporine vs edoxaban alone
[8] = edoxaban + cyclosporine vs edoxaban alone, based on geometric LSM ratios
[9] = edoxaban + erythromycin vs edoxaban alone
[10] = erythromycin study, edoxaban 60 mg alone, mean ± SD, n = 32
[11] = edoxaban + ketoconazole vs alone, reduced

In the case of CN1CCc2nc(C(=O)N[C@@H]3C[C@@H](C(=O)N(C)C)CC[C@@H]3NC(=O)C(=O)Nc3ccc(Cl)cn3)sc2C1 [Edoxaban], the “increase in total exposure with quinidine” value ([1]; intravenous dosing of edoxaban) is listed as “about 35%”, the “increase in exposure with quinidine” value ([1]; oral edoxaban) is listed as “about 68%” and the “substrate of OAT3” value (OAT3) is listed as “not a substrate”. For the same compound, the “increase in peak exposure” value [2, 7] was “approximately 1.7 fold”, the “increase in total exposure” value [2, 7] was “approximately 1.7 fold” and the “increase in peak exposure (Cmax)” value [2, 8] was 74%. For the same compound, the “increase in total exposure (AUC)” value [2, 8] was 73%, the AUC(0-inf) ([2]; human, in vivo, 60 mg) was 1.83 ± 0.363 µg·h/mL and the Tmax ([2]; human, in vivo, 60 mg) was 1.5 h. For the same compound, the half-life ([2]; human, in vivo, 60 mg) was 14.5 ± 5.34 h, the “substrate of OATP1B1” value (OATP1B1) was “not a substrate” and the “substrate of OAT1” value (OAT1) was “not a substrate”. For the same compound, the “substrate of OCT2” value (OCT2) was “not a substrate”, the serious adverse events [3] was “No serious adverse events” and the tolerability ([3]; alone or in combination with ketoconazole, erythromycin, or cyclosporine) was “well tolerated”. For the same compound, the “metabolism via CYP3A4, share of total clearance” value [4] was < 4%, the “oral (absolute) bioavailability” value [4] was 62% and the “decrease in apparent volume of distribution” value [5, 9] was 63%. For the same compound, the “decrease in total apparent clearance” value [5, 9] was “about 47%”, the “increase in total exposure (AUC)” value [5, 9] was 85% and the “AUC (extrapolated to infinity)” value [5, 10] was 1740 ± 443.7 ^b ng h ml^–1. The t1/2 [5, 10] was 10.24 ± 3.71 ^b h, the Cmax ([5]; human, in vivo, po, 60 mg) was 0.259 ± 0.1 µg/mL and the “transport via P‐gp” value (P‐gp) was “transported via P‐gp”. The change in clearance [6, 11] was “approximately 46%”, the “change in volume of distribution” value [6, 11] was “approximately 46%” and the “increase in total exposure (AUC)” value ([6]; edoxaban + ketoconazole vs edoxaban alone) was 87%. The half-life ([6]; human, in vivo) was ~11.5 h, the AUC(0-inf) ([6]; human, in vivo, 60 mg) was 1.65 ± 0.412 µg·h/mL and the half-life ([6]; human, in vivo, 60 mg) was 11.9 ± 4.11 h. For the same compound, the Cmax ([6]; human, in vivo, po, 60 mg) was 0.245 ± 0.0869 µg/mL.
In the case of CC(=O)N1CCN(c2ccc(OCC3COC(Cn4ccnc4)(c4ccc(Cl)cc4Cl)O3)cc2)CC1 (centres unmarked) [ketoconazole], the “degree of CYP3A4 inhibitory activity” value (CYP3A4) is given as “strong”.
